These results are taken from ChEMBL document CHEMBL1201862, “PubChem BioAssay data set” (2004).

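Following 48 hours of exposure in 96-well plates, responses at five concentrations were used to interpolate endpoints linearly. Here, GI50 denotes the concentration required for 50% inhibition of growth.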 The source made the active and inactive calls. No stated cut-off is given here; in the data, active = GI50 up to about 1.1 µM and inactive = higher. Bounds are passed on as bounds.

Among the test systems are OVCAR-5; 786-0; NCI-H522; NCI-H23; SK-MEL-5; RXF 393; SK-MEL-28; OVCAR-4; UO-31; SR; SK-OV-3; UACC-257; IGROV-1; OVCAR-3; UACC-62; SNB-19; RPMI-8226.
Common to all, as to assay: inhibition of tumour cell growth, NCI panel, 48 h

Take `COC1=CC(=O)OC(/C=C(C)/C=C/C2=C(C)CCCC2(C)C)C1` (stereo not given): the GI50 in the test on OVCAR-5, with 786-0, with NCI-H522, with NCI-H23, in the test on SK-MEL-5 and with RXF 393 was > 100 µM (inactive) throughout. Further, the GI50 in the test with SK-MEL-28, in the test on OVCAR-4, with UO-31, in the test with SR, in the test with SK-OV-3 and with UACC-257 was > 100 µM (inactive) each time. In addition, the GI50 in the test on IGROV-1, in the test with OVCAR-3, in the test with UACC-62 and in the test on SNB-19 was > 100 µM (inactive) in each case.
As to `O=C(c1ccco1)N(C(=S)N1CCN(c2ccccn2)CC1)C1CCCCC1`, the GI50 in the test on OVCAR-5, in the test on 786-0, in the test on NCI-H522, in the test with NCI-H23, in the test with SK-MEL-5 and with RXF 393 was > 100 µM (inactive) in each case. Also, the GI50 in the test on SK-MEL-28 was > 100 µM (inactive); in the test with OVCAR-4, > 100 µM (inactive); in the test with UO-31, 83.4 µM (inactive); in the test on SR, > 100 µM (inactive); in the test with SK-OV-3, > 100 µM (inactive); in the test with UACC-257 it was > 100 µM (inactive). The GI50 in the test on IGROV-1, with OVCAR-3, in the test with UACC-62, with RPMI-8226 and in the test with SNB-19 was > 100 µM (inactive) throughout.
On to `Cc1cc(NS(=O)(=O)c2ccc(Nc3c4ccccc4nc4c(C(=O)NCCN(C)C)ccc(Cl)c34)cc2)no1`, for which the GI50 was 15.1 µM (inactive) with OVCAR-5; 4.41 µM (inactive) in the test on 786-0; 0.54 µM (active) with NCI-H522; 3.05 µM (inactive) in the test on NCI-H23; 2 µM (inactive) in the test on SK-MEL-5; 7.6 µM (inactive) in the test on RXF 393. Further, the GI50 was 4.41 µM (inactive) with SK-MEL-28; 4.09 µM (inactive) with OVCAR-4; 3.23 µM (inactive) with UO-31; 0.37 µM (active) in the test on SR; 3.56 µM (inactive) in the test on IGROV-1; 11.7 µM (inactive) in the test on OVCAR-3. Also, the GI50 with UACC-62 is 2.35 µM (inactive); in the test on SNB-19 it was 2.67 µM (inactive).
As for `Nc1nc(NC2C=C(CO)C(O)C2O)c([N+](=O)[O-])c(=O)[nH]1` (stereo not given), the GI50 in the test with OVCAR-5, with 786-0, in the test on NCI-H522, in the test on NCI-H23, with SK-MEL-5 and in the test on RXF 393 was > 100 µM (inactive) each time. The GI50 with SK-MEL-28, in the test on OVCAR-4, in the test on UO-31, with SR, in the test on SK-OV-3 and with UACC-257 was > 100 µM (inactive) throughout. The GI50 in the test on IGROV-1, in the test on OVCAR-3, in the test with UACC-62 and in the test on SNB-19 was > 100 µM (inactive) each time.
As for `COc1ccc(/C=C/c2nnc(S)[nH]2)cc1`, the GI50 with OVCAR-5, in the test on 786-0, in the test on NCI-H522, with NCI-H23, in the test on SK-MEL-5 and in the test on RXF 393 was > 100 µM (inactive) in each case. Also, the GI50 in the test on SK-MEL-28, with OVCAR-4, in the test on UO-31, in the test with SR, with UACC-257 and in the test on IGROV-1 was > 100 µM (inactive) in each case. Also, the GI50 in the test on OVCAR-3, in the test on UACC-62, in the test on RPMI-8226 and with SNB-19 was > 100 µM (inactive) each time.
Turning to `CC1(C)CC(C2CC(C)(C)CC(C)(C)[C@H]2O)[C@@H](O)C(C)(C)C1` (stereo not given in full), the GI50 in the test with 786-0, with NCI-H522, in the test on NCI-H23, with SK-MEL-5, in the test with SK-MEL-28 and with UO-31 was > 100 µM (inactive) throughout. For the same compound, the GI50 in the test on SR, in the test on SK-OV-3, with UACC-257, in the test on IGROV-1, in the test on OVCAR-3 and in the test on UACC-62 was > 100 µM (inactive) each time. The GI50 with RPMI-8226 and with SNB-19 was > 100 µM (inactive) each time.
With `CC1=C(/C(C)=N/NC(=O)c2ccccc2O)C(C)C(/C(C)=N/NC(=O)c2ccccc2O)=C(C)N1`, the GI50 in the test on OVCAR-5 is 24.2 µM (inactive); in the test with 786-0, 18.5 µM (inactive); with NCI-H522, 17.5 µM (inactive); in the test with NCI-H23, 13 µM (inactive); in the test on SK-MEL-5, 19.8 µM (inactive); in the test with RXF 393, 4.73 µM (inactive). In addition, the GI50 in the test with SK-MEL-28 is 21.8 µM (inactive); in the test on OVCAR-4, 11.5 µM (inactive); in the test on UO-31, 15.5 µM (inactive); in the test on SR, 23.8 µM (inactive); in the test on SK-OV-3, 38.1 µM (inactive); in the test with UACC-257 it was 23.5 µM (inactive). Besides, the GI50 is 10.6 µM (inactive) in the test with IGROV-1, 12.2 µM (inactive) in the test on OVCAR-3, 6.5 µM (inactive) with UACC-62 and 30.5 µM (inactive) in the test on SNB-19.
Take `COc1cc(C=O)c(-c2cc(OC)c(OC)cc2C=O)cc1OC`: the GI50 is > 100 µM (inactive) in the test on OVCAR-5; > 100 µM (inactive) in the test on 786-0; > 100 µM (inactive) in the test with NCI-H522; 52.6 µM (inactive) with NCI-H23; 76.6 µM (inactive) with SK-MEL-5; 24.5 µM (inactive) in the test with RXF 393. Also, the GI50 was 47.8 µM (inactive) in the test with SK-MEL-28; > 100 µM (inactive) in the test with OVCAR-4; 64.6 µM (inactive) in the test with UO-31; 24.3 µM (inactive) in the test on SR; > 100 µM (inactive) with SK-OV-3; > 100 µM (inactive) in the test with UACC-257. Besides, the GI50 in the test on IGROV-1 is > 100 µM (inactive); with OVCAR-3, > 100 µM (inactive); in the test on UACC-62, > 100 µM (inactive); with RPMI-8226 it was 36.9 µM (inactive); in the test with SNB-19 it was > 100 µM (inactive).
`NC(Cc1ccccc1)C(=O)OCN1C(=O)C2C3C=CC(C2C1=O)C1C2C(=O)N(COC(=O)C(N)Cc4ccccc4)C(=O)C2C31` (stereo not given): the GI50 was 47 µM (inactive) in the test with OVCAR-5; 21.1 µM (inactive) in the test on 786-0; 20.2 µM (inactive) in the test on NCI-H23; 18.3 µM (inactive) in the test with SK-MEL-5; 22.5 µM (inactive) in the test with RXF 393; 22.9 µM (inactive) in the test on SK-MEL-28. Further, the GI50 in the test on OVCAR-4 was 18.3 µM (inactive); in the test on SR, 27.7 µM (inactive); in the test on SK-OV-3, 50.2 µM (inactive); in the test on UACC-257 it was 28.8 µM (inactive); in the test on IGROV-1 it was 35.6 µM (inactive); in the test on OVCAR-3, 33 µM (inactive). The values for the GI50 in the test on UACC-62, in the test on RPMI-8226 and in the test on SNB-19 were 23 µM (inactive), 27.2 µM (inactive) and 50.1 µM (inactive), respectively.
Take `CC(=O)OC1C=CC2CCN3C(=O)c4cc5c(cc4[C@H]1C23)OCO5` (stereo not given in full): the GI50 in the test on 786-0, in the test with NCI-H522, with NCI-H23, in the test on RXF 393, in the test on SK-MEL-28 and with UO-31 was > 100 µM (inactive) in each case. Moreover, the GI50 in the test with SR, with SK-OV-3, in the test with UACC-257, in the test with IGROV-1, in the test on OVCAR-3 and in the test on UACC-62 was > 100 µM (inactive) each time. The GI50 in the test with RPMI-8226 and in the test with SNB-19 was > 100 µM (inactive) in each case.
For `C[N+](C)(C)CC1CCC(C[N+](C)(C)C)C1=NO` (stereo not given), the GI50 in the test on 786-0, with NCI-H522, with NCI-H23, in the test on SK-MEL-5, in the test on RXF 393 and in the test with SK-MEL-28 was > 100 µM (inactive) in each case. Also, the GI50 with OVCAR-4, in the test on UO-31, with SR, in the test with SK-OV-3, in the test on UACC-257 and in the test with IGROV-1 was > 100 µM (inactive) each time. In addition, the GI50 in the test with OVCAR-3, with UACC-62, in the test with RPMI-8226 and in the test with SNB-19 was > 100 µM (inactive) in each case.
In the case of `CCCCCCCCCCCCCCCCCCOCC(C[N+]1(C)CCC(O)CC1)OCC` (stereo not given), the GI50 is 4.18 µM (inactive) in the test with 786-0; 5.71 µM (inactive) in the test on NCI-H522; 2.88 µM (inactive) in the test on NCI-H23; 12.7 µM (inactive) with SK-MEL-28; 4.1 µM (inactive) in the test on OVCAR-4; 11.9 µM (inactive) with UO-31. Also, the GI50 with SR was 1.78 µM (inactive); with SK-OV-3, 2.92 µM (inactive); in the test with UACC-257, 10.9 µM (inactive); in the test with IGROV-1 it was 5.13 µM (inactive); with OVCAR-3, 3.85 µM (inactive); with UACC-62 it was 5.27 µM (inactive). Further, the values for the GI50 in the test on RPMI-8226 and with SNB-19 were 2.77 µM (inactive) and 6.73 µM (inactive), respectively.
